Results as given in US20050277656A1, “Combination comprising docetaxel and a CDK inhibitor” (Cyclacel Limited, priority 2002, published 2005).

What was measured:
[1] = tested on: breast tumor cells (MDA-435); assay: MTT assay, roscovitine exposure followed by docetaxel; details: single agent at 100% of its IC50 (roscovitine 15 ug/ml or Tax. […])
[2] = toxicities (lethality, body weight change) in the LXFL H460 xenograft study; format: in vivo, nude mice (NMRI nu/nu); details: single therapy: CYC202 300 mg/kg/d po bd days 0-4, 7-11, 14-18, TXT 20 mg/kg iv days 0, 14; for Median BWC % (day 21): one week after last therapy of docetaxel
[3] = tested on: lung cancer xenograft (LXFL H460); assay: human tumour xenograft study, Experiment 2: docetaxel/roscovitine scheduling (LXFL H460); format: in vivo, nude mice (NMRI nu/nu); details: for T/C [%] day 28 / T/Copt [%] / dayopt. (day of T/Copt): single therapy: CYC202 300 mg/kg/d po bd days 0-4, 7-11, 14-18, TXT 20 mg/kg iv days 0, 14
[4] = tested on: MAXF 857 primary breast cancer xenograft; details: taxotere on day 2, roscovitine on days 0-3 and 7-9 after randomization, or the combination of the two treatments

Row | Compound | % Response [1] | Lethality n (day) [2] | Median BWC % (day 21) [2] | Tumor growth delay in relation to the vehicle treated control ([3]; LXFL H460, combination Schedule 1, or docetaxel in single therapy) | T/C [%] day 28 [3] | T/Copt [%] [3] | dayopt. (day of T/Copt) [3] | T/C [%] day 28 ([3]; listed as TXT) | optimal T/C [4] | % Abs [1] | T/C [%] day 28 ([3]; listed as CYC202)
1 | CC(=O)O[C@@]12CO[C@@H]1C[C@H](O)[C@@]1(C)C(=O)[C@H](O)C3=C(C)[C@@H](OC(=O)[C@H](O)[C@@H](NC(=O)OC(C)(C)C)c4ccccc4)C[C@@](O)([C@@H](OC(=O)c4ccccc4)[C@H]21)C3(C)C [docetaxel] | 40.7% | 0/10 | −4.2% | 9 days | 27% | 12.2% | 10 days | 27.3% | 21% |  | 
2 | CC[C@H](CO)Nc1nc(NCc2ccccc2)c2ncn(C(C)C)c2n1 [roscovitine, 6-benzylamino-2-[(R)-1-ethyl-2-hydroxyethylamino]-9-isopropylpurine] | 43.3% |  | +7.1% |  | 64% | 64.3% | 28 days |  | 63% | 0% | 64.3%
